Patent US10266482B2, “Long-term memory inducing agent” (NATIONAL UNIVERSITY CORPORATION TOKYO MEDICAL AND DENTAL …, priority 2017, dated 2019)

How the values were obtained:
[1] = system: young mice; experiment: Object recognition test for young mice (melatonin and melatonin metabolites); assay type: in vivo, ICR mice; details: i.p. 60 minutes after one one-minute acquisition trial, test trial 24 hours later
Protocol: Two-month-old male ICR mice (young mice) were used. The rearing room was kept at 22° C. at cycles of 12 hours of light period/12 hours of dark period, and feed and drinking water were given freely. All of the experiments were conducted during the latter 6 hours of the light period.
Melatonin (MEL), N(1)-acetyl-N(2)-formyl-5-methoxykynuramine (AFMK), and N(1)-acetyl-5-methoxykynuramine (AMK) were used as drugs. Melatonin was purchased from SIGMA Aldrich, AFMK was purchased from Cayman Chemical, and AMK was purchased from Toronto Research Chemicals. AFMK and AMK were diluted with physiological saline and intraperitoneally administered at a dosage of 0.01 mg/kg bw, 0.1 mg/kg bw or 1.0 mg/kg bw. MEL was diluted with physiological saline containing 1 vol % ethanol, and intraperitoneally administered at a dosage of 1.0 mg/kg bw or 5.0 mg/kg bw. As controls, physiological saline or physiological saline containing 1 vol % ethanol was intraperitoneally administered.
Test was conducted in the same manner as “5.3 Object recognition test” in Example 5.
Processing was conducted in the same manner as “5.4 Statistical processing” in Example 5.

[2] = system: aged crickets; experiment: Olfactory associative learning test in aged crickets (age-related memory disorder, training four times); assay type: in vivo, Gryllus bimaculatus; details: 5 μM, 3 μl
Protocol: Male crickets about one week old (young) or three week old (aged) following molting into adult forms were used. Each of the crickets was placed into a 100 ml beaker three days before the experiment, and deprived of water for 2-3 days to enhance the desire of taking water. As the feed, about 10 pieces of insect feed were placed into the beaker. A 1-ml syringe was used for smell and reward associative conditioning upon learning/training. The syringe contained water as the reward while a piece of paper (3 mm×3 mm) perfumed with peppermint essence was pierced into the needle to about 1 cm from the tip thereof. In this learning/training, the filter paper on the needle was brought near the antennae of the cricket to allow it to smell for 3 seconds and then a drop of water was put out from the tip of the needle and applied to the mouth of the cricket. When the associative conditioning was conducted for four times, the conditionings were conducted at intervals of 5 minutes. Smell preference was examined by placing each cricket into a test arena. The arena consisted of a “standby chamber” and a “test chamber”. […] The smell source was a plastic pot containing filter paper perfumed with essence of a smell (peppermint or vanilla) and covered with a gauze lid. In the preference test, each cricket was placed into the test chamber and allowed to walk freely for 4 minutes to search for the two smell sources. Two minutes after the start of the test, a rotary board having the smell sources was rotated to reverse the positions of the vanilla and the peppermint smells. During the test, the time the cricket spent placing its mouth to the gauze of the smell source was measured as a visiting time to the smell source, and the ratio of the visiting times of the two types of smells (PI value: preference index) was calculated according to the following formula to assess the relative preference to the mint smell. PI value=Tp/(Tp+Tv)×100 • Tp: Searching time for smell associated with the reward (peppermint) • Tv: Searching time for smell not associated with the reward (vanilla) If the preferences for the two smells are equivalent, PI will be 50. Since crickets inherently prefer vanilla smell over peppermint smell, an average PI value prior to the learning/training is usually 25-35, The preference test was conducted before and after the learning/training to examine whether preference for the smell changes due to the learning/training. […] Melatonin, 6-HM, kynurenine, kynuramine and 8br-cGMP were purchased from SIGMA Aldrich, AFMK was purchased from Cayman Chemical, AMK was purchased from Toronto Research Chemicals and CHX was purchased from Wako Pure Chemical Industries. The drugs other than 8br-cGMP and CHX were first dissolved in ethanol and then diluted with physiological saline for crickets to the respective concentrations. In the administration experiment, 3 μl was administered using a 10-μl syringe to the brain via an aperture opened through a simple eye of the head. PI values were tested before the training and a day after the training in the same group by a Wilcoxon's-test.

[3] = system: young crickets; experiment: Olfactory associative learning test in young crickets (single-time training, memory a day after); assay type: in vivo, Gryllus bimaculatus; details: drinking 10 μl of aqueous solution (5 μM) 5 minutes after single-time training
[4] = system: young crickets; experiment: as above; assay type: in vivo, Gryllus bimaculatus
Protocol: Male crickets about one week old (young) or three week old (aged) following molting into adult forms were used. Each of the crickets was placed into a 100 ml beaker three days before the experiment, and deprived of water for 2-3 days to enhance the desire of taking water. As the feed, about 10 pieces of insect feed were placed into the beaker.
A 1-ml syringe was used for smell and reward associative conditioning upon learning/training. The syringe contained water as the reward while a piece of paper (3 mm×3 mm) perfumed with peppermint essence was pierced into the needle to about 1 cm from the tip thereof. In this learning/training, the filter paper on the needle was brought near the antennae of the cricket to allow it to smell for 3 seconds and then a drop of water was put out from the tip of the needle and applied to the mouth of the cricket. When the associative conditioning was conducted for four times, the conditionings were conducted at intervals of 5 minutes.
Smell preference was examined by placing each cricket into a test arena. The arena consisted of a “standby chamber” and a “test chamber”. The floor of the “test chamber” had two holes each with a diameter of 4 cm which were communicated with two smell sources. The smell source was a plastic pot containing filter paper perfumed with essence of a smell (peppermint or vanilla) and covered with a gauze lid. In the preference test, each cricket was placed into the test chamber and allowed to walk freely for 4 minutes to search for the two smell sources. Two minutes after the start of the test, a rotary board having the smell sources was rotated to reverse the positions of the vanilla and the peppermint smells. During the test, the time the cricket spent placing its mouth to the gauze of the smell source was measured as a visiting time to the smell source, and the ratio of the visiting times of the two types of smells (PI value: preference index) was calculated according to the following formula to assess the relative preference to the mint smell. PI value=Tp/(Tp+Tv)×100 • Tp: Searching time for smell associated with the reward (peppermint) • Tv: Searching time for smell not associated with the reward (vanilla)
If the preferences for the two smells are equivalent, PI will be 50. Since crickets inherently prefer vanilla smell over peppermint smell, an average PI value prior to the learning/training is usually 25-35, The preference test was conducted before and after the learning/training to examine whether preference for the smell changes due to the learning/training.
As drugs, melatonin, N(1)-acetyl-N(2)-formyl-5-methoxykynuramine (AFMK), N(1)-acetyl-5-methoxykynuramine (AMK), 6-Hydroxymelatonin (6-HM), L-kynurenine, kynuramine, 8-Bromoguanoine 3′,5′-cyclic monophosphate sodium salt (8 br-cGMP) and cycloheximide (CHX) were used. Melatonin, 6-HM, kynurenine, kynuramine and 8br-cGMP were purchased from SIGMA Aldrich, AFMK was purchased from Cayman Chemical, AMK was purchased from Toronto Research Chemicals and CHX was purchased from Wako Pure Chemical Industries. The drugs other than 8br-cGMP and CHX were first dissolved in ethanol and then diluted with physiological saline for crickets to the respective concentrations. In the administration experiment, 3 μl was administered using a 10-μl syringe to the brain via an aperture opened through a simple eye of the head.
PI values were tested before the training and a day after the training in the same group by a Wilcoxon's-test.

COc1ccc2[nH]cc(CCNC(C)=O)c2c1 [melatonin, reference compound]
concentration at which the effect of inducing long-term memories was found [1]: 5.0 mg/kg bw | improvement in an age-related memory disorder ([2]; 20 minutes after training for four times): improvement in an age-related memory disorder was observed | long-term memory formation a day after the training (improvement of age-related memory disorder) ([2]; 20 minutes before training for four times): a long-term memory was formed | long-term memory formation a day after the training by oral administration [3]: long-term memory was formed | long-term memory formation a day after the training ([4]; 0.2 μM, 3 μl to the brain, 20 minutes after single-time training): not | long-term memory formation a day after the training ([4]; 1 μM, 3 μl to the brain, 20 minutes after single-time training): not | PI value for mint a day after the training versus PI value before the training ([4]; 5 μM to the brain 20 minutes before single-time training): significantly higher | long-term memory formation a day after the training ([4]; 5 μM, 3 μl to the brain, 20 minutes after single-time training): long-term memories were formed | long-term memory formation a day after the training ([4]; 5 μM, 3 μl, administered between 20 minutes before and 20 minutes after single-time training): long-term memory was formed | long-term memory formation a day after the training ([4]; 25 μM, 3 μl to the brain, 20 minutes after single-time training): formed | administration concentration sufficient to form long-term memory ([4]; 3 μl to the brain 20 minutes after single-time training): 5 µM | amount in 1 g of the food per kg of body weight ([4]; based on the result from ingesting 5 μM for 10 μl): ≥ 11.6 µg | PI value for mint a day after the training versus PI value before the training ([4]; melatonin 5 μM simultaneously with cycloheximide (10 mM), to the brain 20 minutes before single-time training): no significant difference
